Tests used:
[1] = target: T1, recombinant human ALK5 (TGF-βR1) protein (Homo sapiens, UniProt P36897); assay: Biochemical ALK5 (TGF-βR1) assay to measure pKi (LANCE Ultra ULight kinase assay); details: apparent pKi, converted from pIC50 by Cheng-Prusoff
T1 construct: purchased Life Technologies PR9075A
T1 sequence (P36897 34-503): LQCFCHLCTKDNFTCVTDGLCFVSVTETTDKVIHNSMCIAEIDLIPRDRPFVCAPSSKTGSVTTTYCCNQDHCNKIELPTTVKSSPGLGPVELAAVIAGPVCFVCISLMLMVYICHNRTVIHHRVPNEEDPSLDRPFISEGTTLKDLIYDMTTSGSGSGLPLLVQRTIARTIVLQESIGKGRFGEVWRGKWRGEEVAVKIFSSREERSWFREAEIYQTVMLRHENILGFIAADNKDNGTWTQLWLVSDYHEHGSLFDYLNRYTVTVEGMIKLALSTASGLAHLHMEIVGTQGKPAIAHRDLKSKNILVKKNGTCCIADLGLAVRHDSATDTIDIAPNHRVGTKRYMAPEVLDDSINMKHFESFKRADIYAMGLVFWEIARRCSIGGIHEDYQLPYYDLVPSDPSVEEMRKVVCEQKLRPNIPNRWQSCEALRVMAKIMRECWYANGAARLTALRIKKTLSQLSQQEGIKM
Method in brief: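 Read-out was LANCE Ultra TR-FRET with a europium anti-phospho-Topo IIα Thr1342 antibody after EDTA quench. Kinase reaction ran 60 min at 37 °C with ATP added from a 125 μM 5× stock, after 60 min compound–enzyme equilibration at room temperature. Values are pKi from Cheng-Prusoff conversion of fitted pIC50.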

[2] = tested on: TGF-β-stimulated SMAD3 phosphorylation in BEAS-2B cells; assay: Cellular ALK5 potency assay, inhibition of TGF-β stimulated pSMAD3 formation in BEAS-2B cells; assay type: cell-based; details: Homo sapiens, pSMAD3, TGF-β 10 ng/mL, read-out: BEAS2B pIC50 (converted)
Method in brief: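 Cells were seeded overnight, rinsed into HEPES/BSA-supplemented HBSS, and dosed with serially diluted compound for 1 h at 37 °C, 5% CO2. TGF-β stimulation (10 ng/mL final) followed for 30 min, then lysis and AlphaLISA pSMAD3 measurement; potency reported as pIC50.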

COc1cc(Nc2nccc(Nc3ccnc(-c4cccc(C)n4)n3)n2)ccc1N1CCOCC1 [Compound 79, N2-(3-methoxy-4-morpholino-phenyl)-N4-[2-(6-methyl-2-pyridyl)pyrimidin-4-yl]pyrimidine-2,4-diamine]
Ki [1]: 0.0398 to 0.316 nM
IC50 [2]: 25.1 to 158 nM

CCN1CCN(c2ccc(Nc3nccc(Nc4ccnc(-c5cccc(C)n5)n4)n3)cc2)CC1 [Compound 80, N2-[4-(4-ethylpiperazin-1-yl)phenyl]-N4-[2-(6-methyl-2-pyridyl)pyrimidin-4-yl]pyrimidine-2,4-diamine]
Ki [1]: 0.0398 to 0.316 nM
IC50 [2]: 25.1 to 158 nM

Cc1cccc(-c2nccc(Nc3ccnc(Nc4ccc(C)c(CN5C[C@@H](C)N[C@@H](C)C5)c4)n3)n2)n1 [Compound 81, N4-[2-(6-methyl-2-pyridyl)pyrimidin-4-yl]-N2-[4-methyl-3-[[rac-(3R,5S)-3,5-dimethylpiperazin-1-yl]methyl]phenyl]pyrimidine-2,4-diamine]
Ki [1]: 0.0398 to 0.316 nM
IC50 [2]: 25.1 to 158 nM

Cc1cccc(-c2nccc(Nc3ccnc(Nc4ccc(CC(=O)O)cc4)n3)n2)n1 [Compound 82, 2-[4-[[4-[[2-(6-methyl-2-pyridyl)pyrimidin-4-yl]amino]pyrimidin-2-yl]amino]phenyl]acetic acid]
Ki [1]: 0.398 to 3.16 nM
IC50 [2]: 1580 to 10000 nM

COC(=O)C1CCCN(c2ccc(Nc3nccc(Nc4ccnc(-c5cccc(C)n5)n4)n3)cc2)C1 (stereo not shown) [Compound 83, methyl 1-[4-[[4-[[2-(6-methyl-2-pyridyl)pyrimidin-4-yl]amino]pyrimidin-2-yl]amino]phenyl]piperidine-3-carboxylate]
Ki [1]: 0.0398 to 0.316 nM
IC50 [2]: 25.1 to 158 nM

Cc1cccc(-c2nccc(Nc3ccnc(Nc4cnn(CCN5CCOCC5)c4)n3)n2)n1 [Compound 84, N4-(2-(6-methylpyridin-2-yl)pyrimidin-4-yl)-N2-(1-(2-morpholinoethyl)-1H-pyrazol-4-yl)pyrimidine-2,4-diamine]
Ki [1]: 0.0398 to 0.316 nM
IC50 [2]: 25.1 to 158 nM

Cc1cccc(-c2nccc(Nc3ccnc(Nc4cc(C(=O)OC5CCNCC5)cs4)n3)n2)n1 [Compound 85, 4-piperidyl 5-[[4-[[2-(6-methyl-2-pyridyl)pyrimidin-4-yl]amino]pyrimidin-2-yl]amino]thiophene-3-carboxylate]
Ki [1]: 0.0398 to 0.316 nM
IC50 [2]: 25.1 to 158 nM

Cc1cccc(-c2nccc(Nc3ccnc(Nc4cnc(N5CCNCC5)nc4)n3)n2)n1 [Compound 86, N4-(2-(6-methylpyridin-2-yl)pyrimidin-4-yl)-N2-(2-(piperazin-1-yl)pyrimidin-5-yl)pyrimidine-2,4-diamine]
Ki [1]: 0.398 to 3.16 nM
IC50 [2]: 200 to 1260 nM

Cc1cccc(-c2nccc(Nc3ccnc(Nc4cccc(S(=O)(=O)N(C)C5CCNCC5)c4)n3)n2)n1 [Compound 87, N-methyl-3-[[4-[[2-(6-methyl-2-pyridyl)pyrimidin-4-yl]amino]pyrimidin-2-yl]amino]-N-(4-piperidyl)benzenesulfonamide]
Ki [1]: 3.98 to 31.6 nM
IC50 [2]: 200 to 1260 nM

Cc1cccc(-c2nccc(Nc3ccnc(Nc4ccc(CN5CC(C(=O)OCC6CNC6)C5)cc4)n3)n2)n1 [Compound 88, azetidin-3-ylmethyl 1-(4-((4-((2-(6-methylpyridin-2-yl)pyrimidin-4-yl)amino)pyrimidin-2-yl)amino)benzyl)azetidine-3-carboxylate]
Ki [1]: 0.0398 to 0.316 nM
IC50 [2]: 25.1 to 158 nM

Cc1cccc(-c2nccc(Nc3ccnc(Nc4csc(C(=O)NCC5CNC5)c4)n3)n2)n1 [Compound 89, N-(azetidin-3-ylmethyl)-4-[[4-[[2-(6-methyl-2-pyridyl)pyrimidin-4-yl]amino]pyrimidin-2-yl]amino]thiophene-2-carboxamide]
Ki [1]: ≤ 0.0316 nM
IC50 [2]: ≤ 20 nM

CNC1CCN(c2ccc(Nc3nccc(Nc4ccnc(-c5ccccc5F)n4)n3)cc2)CC1 [Compound 90, N4-[2-(2-fluorophenyl)pyrimidin-4-yl]-N2-[4-[4-(methylamino)-1-piperidyl]phenyl]pyrimidine-2,4-diamine]
Ki [1]: 0.398 to 3.16 nM
IC50 [2]: 25.1 to 158 nM

Cc1cccc(-c2nccc(Nc3ccnc(Nc4ccc(C(=O)NCC5CNC5)cc4)n3)n2)n1 [Compound 92, N-(azetidin-3-ylmethyl)-4-[[4-[[2-(6-methyl-2-pyridyl)pyrimidin-4-yl]amino]pyrimidin-2-yl]amino]benzamide]
Ki [1]: 0.0398 to 0.316 nM
IC50 [2]: ≤ 20 nM

Cc1cccc(-c2nccc(Nc3ccnc(Nc4ccc(NS(=O)(=O)N5CCNCC5)cc4)n3)n2)n1 [Compound 93, N-[4-[[4-[[2-(6-methyl-2-pyridyl)pyrimidin-4-yl]amino]pyrimidin-2-yl]amino]phenyl]piperazine-1-sulfonamide]
Ki [1]: 0.0398 to 0.316 nM
IC50 [2]: 200 to 1260 nM

Cc1cccc(-c2nccc(Nc3ccnc(Nc4csc(CN5CCNCC5)c4)n3)n2)n1 [Compound 94, N4-(2-(6-methylpyridin-2-yl)pyrimidin-4-yl)-N2-(5-(piperazin-1-ylmethyl)thiophen-3-yl)pyrimidine-2,4-diamine]
Ki [1]: ≤ 0.0316 nM
IC50 [2]: ≤ 20 nM

Cc1cccc(-c2nccc(Nc3ccnc(Nc4ccc(N5CCNCC5)c(CC(=O)O)c4)n3)n2)n1 [Compound 95, 2-[5-[[4-[[2-(6-methyl-2-pyridyl)pyrimidin-4-yl]amino]pyrimidin-2-yl]amino]-2-piperazin-1-yl-phenyl]acetic acid]
Ki [1]: 0.0398 to 0.316 nM
IC50 [2]: 200 to 1260 nM

Cc1cccc(-c2nccc(Nc3ccnc(Nc4csc(C(=O)OCC5CNC5)c4)n3)n2)n1 [Compound 96, azetidin-3-ylmethyl 4-((4-((2-(6-methylpyridin-2-yl)pyrimidin-4-yl)amino)pyrimidin-2-yl)amino)thiophene-2-carboxylate]
Ki [1]: 0.0398 to 0.316 nM
IC50 [2]: 25.1 to 158 nM

Cc1cccc(-c2nccc(Nc3ccnc(Nc4ccc(CN5CC(C(=O)O[C@H]6CCN(C)C6)C5)cc4)n3)n2)n1 [Compound 97, [(3S)-1-methylpyrrolidin-3-yl] 1-[[4-[[4-[[2-(6-methyl-2-pyridyl)pyrimidin-4-yl]amino]pyrimidin-2-yl]amino]phenyl]methyl] azetidine-3-carboxylate]
Ki [1]: 0.0398 to 0.316 nM
IC50 [2]: 25.1 to 158 nM

Cc1cccc(-c2nccc(Nc3ccnc(Nc4ccc(N5CC(N)C5)cc4)n3)n2)n1 [Compound 98, N2-[4-(3-aminoazetidin-1-yl)phenyl]-N4-[2-(6-methyl-2-pyridyl)pyrimidin-4-yl]pyrimidine-2,4-diamine]
Ki [1]: 0.0398 to 0.316 nM
IC50 [2]: 25.1 to 158 nM

Cc1cccc(-c2nccc(Nc3ccnc(Nc4ccc(CN5CC(C)(CO)C5)cc4)n3)n2)n1 [Compound 99, [3-methyl-1-[[4-[[4-[[2-(6-methyl-2-pyridyl)pyrimidin-4-yl]amino]pyrimidin-2-yl]amino]phenyl]methyl]azetidin-3-yl]methanol]
Ki [1]: ≤ 0.0316 nM
IC50 [2]: 25.1 to 158 nM

Cc1cccc(-c2nccc(Nc3ccnc(Nc4ccc(C(=O)OCC5CNC5)s4)n3)n2)n1 [Compound 100, azetidin-3-ylmethyl 5-[[4-[[2-(6-methyl-2-pyridyl)pyrimidin-4-yl]amino]pyrimidin-2-yl]amino]thiophene-2-carboxylate]
Ki [1]: 0.0398 to 0.316 nM
IC50 [2]: 25.1 to 158 nM

Cc1cccc(-c2nccc(Nc3ccnc(Nc4ccc(N5CCC(C(=O)OC6CCNC6)CC5)cc4)n3)n2)n1 (stereo not shown) [Compound 101, pyrrolidin-3-yl 1-[4-[[4-[[2-(6-methyl-2-pyridyl)pyrimidin-4-yl]amino]pyrimidin-2-yl]amino]phenyl]piperidine-4-carboxylate]
Ki [1]: 0.0398 to 0.316 nM
IC50 [2]: 25.1 to 158 nM

Cc1cccc(-c2nccc(Nc3ccnc(Nc4ccc(N5CCN(CC6CCNC6)CC5)cc4)n3)n2)n1 (stereo not shown) [Compound 102, N4-[2-(6-methyl-2-pyridyl)pyrimidin-4-yl]-N2-[4-[4-(pyrrolidin-3-ylmethyl)piperazin-1-yl]phenyl]pyrimidine-2,4-diamine]
Ki [1]: 0.0398 to 0.316 nM
IC50 [2]: 25.1 to 158 nM

Cc1cccc(-c2nccc(Nc3ccnc(Nc4ccc(CN5CCSCC5)cc4)n3)n2)n1 [Compound 104, N4-[2-(6-methyl-2-pyridyl)pyrimidin-4-yl]-N2-[4-(thiomorpholinomethyl)phenyl] pyrimidine-2,4-diamine]
Ki [1]: 0.0398 to 0.316 nM
IC50 [2]: 25.1 to 158 nM

Cc1cccc(-c2nccc(Nc3ccnc(Nc4ccc(NS(=O)(=O)CC5CCCNC5)cc4)n3)n2)n1 (stereo not shown) [Compound 106, N-(4-((4-((2-(6-methylpyridin-2-yl)pyrimidin-4-yl)amino)pyrimidin-2-yl)amino)phenyl)-1-(piperidin-3-yl)methanesulfonamide]
Ki [1]: 0.0398 to 0.316 nM
IC50 [2]: 25.1 to 158 nM

Cc1cccc(-c2nccc(Nc3ccnc(Nc4ccc(S(=O)(=O)N5CCN(C(=O)NC(C)C)CC5)cc4)n3)n2)n1 [Compound 107, N-isopropyl-4-[4-[[4-[[2-(6-methyl-2-pyridyl)pyrimidin-4-yl]amino]pyrimidin-2-yl]amino]phenyl]sulfonyl-piperazine-1-carboxamide]
Ki [1]: 0.398 to 3.16 nM
IC50 [2]: 200 to 1260 nM
